Results published in PubChem BioAssay (NCI).
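48-hour exposure; five concentrations; linearly interpolated endpoints. The concentration for 50% growth inhibition is given as GI50. TGI denotes the concentration required for complete inhibition of growth.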

How the values were obtained:
Test in all cases: growth of human tumour cells (NCI), 48 h
[1] = test system: UACC-257 melanoma
[2] = test system: TK-10 renal
[3] = test system: COLO 205 colon
[4] = test system: MCF7 breast
[5] = test system: PC-3 prostate
[6] = test system: MDA-MB-435
[7] = test system: LOX IMVI melanoma
[8] = test system: NCI-H522 lung
[9] = test system: A549 NSCLC
[10] = test system: UACC-62 melanoma
[11] = test system: BT-549 breast
[12] = test system: SK-OV-3 ovarian
[13] = test system: SK-MEL-2 melanoma
[14] = test system: HCT-116 colon
[15] = test system: HL-60(TB) leukemia
[16] = test system: OVCAR-3 ovarian
[17] = test system: SF-268 CNS
[18] = test system: MOLT-4 leukemia
[19] = test system: HCC-2998 colon
[20] = test system: EKVX NSCLC
[21] = test system: OVCAR-5 ovarian
[22] = test system: UO-31 renal
[23] = test system: SF-539 CNS
[24] = test system: SK-MEL-5 melanoma
[25] = test system: HCT-15 colon
[26] = test system: NCI-H226 lung
[27] = test system: KM12 colon
[28] = test system: SF-295 CNS
[29] = test system: RPMI-8226 leukemia
[30] = test system: DU-145 prostate
[31] = test system: M14 melanoma
[32] = test system: HS 578T breast
[33] = test system: A498 renal
[34] = test system: CAKI-1 renal
[35] = test system: MALME-3M melanoma
[36] = test system: SR leukemia
[37] = test system: RXF 393 renal
[38] = test system: HOP-92 NSCLC
[39] = test system: ACHN renal
[40] = test system: NCI-H460 lung
[41] = test system: HT29 colon
[42] = test system: MDA-MB-231 breast
[43] = test system: U251 CNS
[44] = test system: OVCAR-4 ovarian
[45] = test system: IGROV1 ovarian
[46] = test system: SW-620 colon
[47] = test system: SNB-19 CNS
[48] = test system: 786-0 renal
[49] = test system: CCRF-CEM leukemia
[50] = test system: SK-MEL-28 melanoma
[51] = test system: T-47D breast
[52] = test system: SNB-75 CNS
[53] = test system: SN12C renal
[54] = test system: HOP-62 NSCLC

Structure (SMILES): CCN(CC)c1ccc(NC2=C(Cl)C(=O)c3nc(C)ccc3C2=O)cc1
- GI50 [1]: 1.6 µM
- TGI [1]: 3 µM
- GI50 [2]: 2.05 µM
- TGI [2]: 3.51 µM
- GI50 [3]: 1.92 µM
- TGI [3]: 3.82 µM
- GI50 [4]: 1.94 µM
- TGI [4]: 5.04 µM
- GI50 [5]: 1.8 µM
- TGI [5]: 3.66 µM
- GI50 [6]: 1.99 µM
- TGI [6]: 3.87 µM
- GI50 [7]: 1.67 µM
- TGI [7]: 3.5 µM
- GI50 [8]: 1.81 µM
- TGI [8]: 3.92 µM
- GI50 [9]: 2.61 µM
- TGI [9]: 7.05 µM
- GI50 [10]: 1.63 µM
- TGI [10]: 3.13 µM
- GI50 [11]: 1.58 µM
- TGI [11]: 2.96 µM
- GI50 [12]: 2.2 µM
- TGI [12]: 6.57 µM
- GI50 [13]: 1.85 µM
- TGI [13]: 3.48 µM
- GI50 [14]: 1.75 µM
- TGI [14]: 3.63 µM
- GI50 [15]: 1.55 µM
- TGI [15]: 4.1 µM
- GI50 [16]: 1.81 µM
- TGI [16]: 3.3 µM
- GI50 [17]: 1.8 µM
- TGI [17]: 3.53 µM
- GI50 [18]: 1.91 µM
- TGI [18]: 5.43 µM
- GI50 [19]: 1.89 µM
- TGI [19]: 3.55 µM
- GI50 [20]: 1.59 µM
- TGI [20]: 3.33 µM
- GI50 [21]: 2.12 µM
- TGI [21]: 4.1 µM
- GI50 [22]: 1.54 µM
- TGI [22]: 2.93 µM
- GI50 [23]: 1.82 µM
- TGI [23]: 3.38 µM
- GI50 [24]: 1.75 µM
- TGI [24]: 3.22 µM
- GI50 [25]: 1.63 µM
- TGI [25]: 3.34 µM
- GI50 [26]: 2.27 µM
- TGI [26]: 5.6 µM
- GI50 [27]: 2.42 µM
- TGI [27]: 5.88 µM
- GI50 [28]: 1.97 µM
- TGI [28]: 4.23 µM
- GI50 [29]: 2.52 µM
- TGI [29]: 6.29 µM
- GI50 [30]: 1.93 µM
- TGI [30]: 3.51 µM
- GI50 [31]: 1.73 µM
- TGI [31]: 3.3 µM
- GI50 [32]: 2.38 µM
- TGI [32]: 6.37 µM
- GI50 [33]: 11.9 µM
- TGI [33]: 24.5 µM
- GI50 [34]: 1.61 µM
- TGI [34]: 3.16 µM
- GI50 [35]: 2.18 µM
- TGI [35]: 4.13 µM
- GI50 [36]: 0.643 µM
- TGI [36]: 3.67 µM
- GI50 [37]: 1.63 µM
- TGI [37]: 3.02 µM
- GI50 [38]: 1.71 µM
- TGI [38]: 3.41 µM
- GI50 [39]: 1.93 µM
- TGI [39]: 3.43 µM
- GI50 [40]: 5.38 µM
- TGI [40]: 23.2 µM
- GI50 [41]: 2.66 µM
- TGI [41]: 6.76 µM
- GI50 [42]: 1.89 µM
- TGI [42]: 3.69 µM
- GI50 [43]: 1.87 µM
- TGI [43]: 3.57 µM
- GI50 [44]: 1.82 µM
- TGI [44]: 3.52 µM
- GI50 [45]: 2.11 µM
- TGI [45]: 4.31 µM
- GI50 [46]: 2.18 µM
- TGI [46]: 4.74 µM
- GI50 [47]: 1.77 µM
- TGI [47]: 3.35 µM
- GI50 [48]: 1.87 µM
- TGI [48]: 3.55 µM
- GI50 [49]: 2.27 µM
- TGI [49]: 6.43 µM
- GI50 [50]: 2.04 µM
- TGI [50]: 3.68 µM
- GI50 [51]: 1.96 µM
- TGI [51]: 5.46 µM
- GI50 [52]: 1.98 µM
- TGI [52]: 5.03 µM
- GI50 [53]: 1.95 µM
- TGI [53]: 4.35 µM
- GI50 [54]: 3.21 µM
- TGI [54]: 12.2 µM
